The values below come from patent publication US12186320B2, “Therapeutic agent containing pyrazolo[3,4-d]pyrimidine compound as active ingredient” (TAIHO PHARMACEUTICAL CO., LTD., priority 2018, dated 2025).

Data set [1] has as its system Champions Tumor Graft models CTG-1171. The note with it: cited from earlier work.
For data set [2], the system named is Human stomach cancer cell line, NCI-N87. Briefly: Antitumor evaluation in model with tumor recurrence following administration of trastuzumab emtansine (NCI-N87 subcutaneous xenograft). The note with it: for TV (mm^3) on Day43 Mean ± SD: Step 2, Day 43, Compound 1 60 mg/kg/day p.o. Days 1-42, trastuzumab emtansine 10 mg/kg/day i.v. Days 1, 22, n=9. It is filed as in vivo, nude mice (BALB/cAJcl-nu/nu). On the procedure: Human stomach cancer cell line, NCI-N87, was obtained from American Type Culture Collection (ATCC). The cell line was cultured in a RPMI-1640 medium (containing 4.5 g/L glucose, 10 mM HEPES and 1 mM sodium pyruvate) (Wako Pure Chemical Corporation) containing 10% fetal bovine serum (FBS) at 37° C. in a 5% CO2 incubator.
The NCI-N87 cells were resuspended in PBS to a concentration of 10^8 cells/mL. A 1-mL tuberculin syringe with a 25G needle was used to subcutaneously transplant […] cells/0.1 mL each of the cell suspension into the right chests of 6-week-old nude mice (BALB/cAJcl-nu/nu, CLEA Japan, Inc.).
The tumor diameter was measured with a digital caliper by holding the long diameter and the short diameter of the tumor between the measuring surfaces of the digital caliper for each mouse. Measurements took place at a frequency of once in 2-5 days including the day of group sorting and the day of judgement. The tumor volume (TV) was calculated based on these long and short diameters. The relative tumor volume (RTV) and the rate of change in the relative tumor volume (T/C) were calculated from the calculated tumor volume. TV, RTV and T/C were calculated according to the following equations. Tumor volume TV(mm^3)=(Long diameter, mm)×(Short diameter, mm)×(Short diameter, mm)/2 Relative tumor volume RTV=(TV on day of measurement)/(TV on day of dividing into groups) Rate of change in relative tumor volume T/C (%)=(Mean RTV of treated group)/(Mean RTV of control group)×100
The tumor diameters and weights were measured with time to calculate TV and BWC.
Eighteen nude mice confirmed with tumor recurrence in Step 1 were selected, and 9 animals were assigned to each group by equal distribution (MiSTAT (ver.2.0)) as follows such that the mean TV of each group was uniform (Day 1, i.e., Day 85 as counted from Step 1). Compound 1 was prepared to 6 mg/mL with a 0.1N HCl solution, and the resultant was orally administered once a day on Days 1-42 consecutively. […] The tumor diameters and weights were measured with time to calculate TV and BWC.

For data set [3], the system named is Champions Tumor Graft models CTG-1171. As to the kind of experiment: Anti-tumor effect using cancer patient-derived cells (CTG-1171 PDX, Test Example 2). In kind it is in vivo, nude mice (Athymic Nude-Foxn1nu). The method, then:
Champions Tumor Graft models CTG-1171 (Champions Oncology, Inc.) having the profiles shown in Tables 5-8 were transplanted into Stock mice (Athymic Nude-Foxn1^nu, Envigo). Once the tumor volume of the transplanted tumor reached 1,000-1,500 mm^3, the tumor was taken out and a fragment thereof of about 65 mm^3 was subcutaneously transplanted into the left side of 7-week-old nude mice (Athymic Nude-Foxn1^nu, Envigo). Tumor diameters were measured twice a week with a digital caliper. TV was calculated according to the following equation. TV (mm^3)=Width (mm)^2×Length (mm)×0.52
Ten individuals whose tumor volumes reached 150-300 mm^3 were assigned to each group (Day 0).
(§1) Compound 1 was prepared to have a predetermined concentration with a 0.1N HCl solution, and the resultant was orally administered once a day on Days 0-27 consecutively. Tumor diameters were measured twice a week with a digital caliper. The rate of change in the weight of the mouse was calculated in the same manner as Test example 1 above. Mice observed with weight loss by 10% or more as compared to Day 0 were given DietGel (registered trademark).
The anti-tumor effect of the drug was evaluated according to tumor growth inhibition (TGI), which was calculated by the following equation. TGI=(100%×[1−(TV of treated group on Day 27−TV of treated group on Day 0)/(TV of control group on Day 27−TV of control group on Day 0)])

The nature of data set [4]: Body weight change / toxicity judgement in CTG-1171 PDX model (Test Example 2). In kind it is in vivo. The note with it: 60 mg/kg/day p.o. Days 0-27. On the procedure: as §1
In addition, the presence of toxicity was judged as follows: a dose observed with a weight loss of 20% or more or a mortality rate of 10% or more was judged to have exceeded the MTD (maximum tolerated dose) and thus toxicity was present.

Data set [5] concerns Breast cancer (primary), HER2 +. The note with it: single patient; neighbouring lines without a result appear to be partners of the same regimen; cited from earlier work.
Where [6] appears, read: value on first line of a two-line group (apparent combination): Capecitabine 5 with Lapatinib 1 mg/kg/day, once a day for 21 days p.o., Gemcitabine with Nab-paclitaxel, dose not given.

Like-named read-outs stand apart in the source and are kept apart here.

As for `CCCCCOC(=O)Nc1nc(=O)n([C@@H]2O[C@H](C)[C@@H](O)[C@H]2O)cc1F` [Capecitabine], the “TGI (%)” value in data set [1] (setting [6]) is on record as 96%.

As for `C=CC(=O)N1CCC[C@@H](n2nc(C(=O)Nc3ccc(CC(=O)N(C)C)c(C)c3C)c3c(N)ncnc32)C1` [Compound 1, (R)-1-(1-acryloylpiperidine-3-yl)-4-amino-N-(4-(2-(dimethylamino)-2-oxoethyl)-2,3-dimethylphenyl)-1H-pyrazolo[3,4-d]pyrimidine-3-carboxamide], the “TV versus trastuzumab emtansine-administered group on day of judgement (Day 43)” value in data set [2] (Aspin-Welch's t-test, Compound 1 60 mg/kg/day p.o.) is listed as “significantly lower”. Further, in data set [2] (Day 43, mean TV of Compound 1 group / mean TV of trastuzumab emtansine group × 100, 60 mg/kg/day p.o. Days 1-42), the “T/C (%)” value was determined as 25.4%. Further, the “TV (mm^3) on Day43 Mean ± SD” value in data set [2] is 107.29 ± 37.76 mm^3. Moreover, the “TV versus control-administered group on Day 27” value in data set [3] (60 mg/kg/day p.o. Days 0-27) was “significantly lower”. In addition, in data set [3] (Day 0 (group assignment, baseline), n=10), the “TV (mm^3) on Day0 Mean ± SD” value is 196 ± 22 mm^3. Moreover, in data set [3] (Day 27, 60 mg/kg/day p.o. Days 0-27, n=10), the “TV (mm^3) on Day27 Mean ± SD” value is on record as 162 ± 27 mm^3. Also, the “TGI (%)” value in data set [3] (Day 27 versus Day 0, versus control, 60 mg/kg/day p.o. Days 0-27) stood at 112%. In data set [4], the “decrease of average rate of change in the weight during the administration period” value is listed as under 5% and the “judgement of the dose (tolerability)” value is listed as “tolerable”. Also, the “BWG(%) on Day27 Mean” value in data set [4] (Day 27) is listed as −0.60%.

Turning to `CC(=O)O[C@@]12CO[C@@H]1C[C@H](O)[C@@]1(C)C(=O)[C@H](O)C3=C(C)[C@@H](OC(=O)[C@H](O)[C@@H](NC(=O)OC(C)(C)C)c4ccccc4)C[C@@](O)([C@@H](OC(=O)c4ccccc4)[C@H]21)C3(C)C` [Docetaxel], the “Result (treatment history before acquiring tumor tissue)” value in data set [5] is recorded as “Responded”.

Consider `C=C1C[C@@H]2CC[C@@]34C[C@H]5O[C@H]6[C@@H](O3)[C@H]3O[C@H](CC[C@@H]3O[C@H]6[C@H]5O4)CC(=O)C[C@@H]3[C@@H](OC)[C@@H](C[C@H](O)CN)O[C@H]3C[C@H]3O[C@@H](CC[C@@H]1O2)C[C@@H](C)C3=C` [Eribulin], for which the “Result (treatment history after acquiring tumor tissue)” value in data set [5] is “No response”.

As for `Nc1ccn([C@@H]2O[C@H](CO)[C@@H](O)C2(F)F)c(=O)n1` [Gemcitabine], in data set [1] (setting [6]), the “TGI (%)” value is recorded as 28%.

Turning to `CS(=O)(=O)CCNCc1ccc(-c2ccc3ncnc(Nc4ccc(OCc5cccc(F)c5)c(Cl)c4)c3c2)o1` [Lapatinib], the “Result (treatment history after acquiring tumor tissue)” value in data set [5] is on record as “No response”.

With `CO[C@H]1C[C@@H]2CC[C@@H](C)[C@@](O)(O2)C(=O)C(=O)N2CCCC[C@H]2C(=O)O[C@H]([C@H](C)C[C@@H]2CC[C@@H](OC(=O)C(C)(CO)CO)[C@H](OC)C2)CC(=O)[C@H](C)/C=C(\C)[C@@H](O)[C@@H](OC)C(=O)[C@H](C)C[C@H](C)/C=C/C=C/C=C/1C` [Temsirolimus], the “TGI (%)” value in data set [1] (single agents, Nab-paclitaxel 0.5 mg/kg/day once a week for 3 weeks i.v., Temsirolimus 0.5 once a week for 5 weeks i.p., Trastuzumab 15 once a week for 8 weeks i.v., Afatinib dose not given) was 59%.

Bevacizumab: in data set [5], the “Result (treatment history before acquiring tumor tissue)” value is “No response”.

As for Trastuzumab emtansine, the “tumor course after administration of trastuzumab emtansine (FIG. 1)” value in data set [2] (Step 1, 10 mg/kg/day i.v. on Days 1, 22, 43, 64, n=36) is recorded as “tumor shrinkage was confirmed for once by administration of trastuzumab emtansine but tumor recurrence was confirmed on Day 85”. The “TV (mm^3) on Day43 Mean ± SD” value in data set [2] was 421.92 ± 143.78 mm^3. Besides, in data set [5], the “Result (treatment history after acquiring tumor tissue)” value is recorded as “No response” and the “Result (treatment history before acquiring tumor tissue)” value is “No response”.
